# Laboratory results reported in US20120149080A1, “YEAST PRODUCTION CULTURE FOR THE PRODUCTION OF BUTANOL” (Butamax(TM) Advanced Biofuels LLC, priority 2010, published 2012).
# Experiments:
# Assay in all cases: 24 h survival (CFU) of non-Saccharomyces yeast, HCD/LCD
# Assay type in all cases: cell-based
# Conditions in all cases: for Percent Survival HCD: high cell density; for Percent Survival LCD: low cell density
# Pichia sp. PNY0574 = test system: Pichia sp. PNY0574
# Description: (§1) Non-Saccharomyces yeast strains were tested to determine whether isobutanol tolerance is affected by cell density for these yeasts. Kluyveromyces marxianus PNY0577 (American Type Culture Collection (“ATCC”), Manassas, Va.; ATCC #8554), Kluyveromyces marxians PNY0578 (ATCC #16045), Pichia membranifaciens PNY0572, Pichia anomala PNY0573, Pichia sp. PNY0574, Issatchenkia orientalis PNY0575 and Issatchenkia orientalis PNY0576 were tested. The Pichia and Issatchenkia strains used are wild-type representatives of the designated genera. Other representative strains are commercially available, for example, from ATCC.
# (§2) The non-Saccharomyces yeast strains were plated from freezer vials onto YPD agar (Teknova, Hollister, Calif.) and incubated overnight at 30° C. Cells from each strain from the YPD plates were inoculated into a 25 ml pre-culture of YPD broth) (Teknova, Hollister, Calif.) with an initial OD600 of 0.06 to 0.08 and grown for 7 hours in an aerobic shaker at 30° C. An aliquot of each pre-culture was inoculated into 200 ml YPD broth, to provide an initial OD600 of 0.06 to 0.08 and the resulting culture was incubated with aeration at 30° C. for approximately 17 hours. The optical density of the culture was measured, the culture was centrifuged and the cells were resuspended to yield an OD600 of 5 in fresh YPD broth. This is referred to as a high cell density (HCD) culture. This culture was diluted 100 fold into fresh YPD broth to give a culture with an OD600 of 0.05. This is referred to as a low cell density (LCD) culture. These cultures were incubated at 30° C. with shaking for 30 minutes for an acclimation period. At the end of the 30 minute acclimation period, the OD600 was measured.
# (§3) 5 ml of low or high cell density culture was dispensed to 15 ml conical tubes which contained the concentrations of isobutanol to be tested. The tubes were placed in a rotary drum at 30° C. and incubated for 24 hours. The isobutanol concentration was 1.0% or 2.0%. A control culture for each strain contained no isobutanol. The time of addition of cells was “time 0”. […] All samples were filtered with Acrodisc CR PTFE 0.2 μm filters (Pall Life Sciences, Port Washington, N.Y.) and analyzed using a Shodex SH1011 column (8 mm ID×300 mm length; Showa Denko America, Inc., New York, N.Y.) and a Shodex SH-G as a guard column. The injection volume was 10 μL. The mobile phase was 0.01N sulfuric acid. The column temperature was 50° C. with a mobile phase flow rate of 0.5 mL/min. For detection, a photometric detector at 210 nm and a refractive index detector were used.
# (§4) Colony forming units (CFUs) were determined on YPD plates at time 0 for the controls and at 24 hours for all samples, including the control cultures, using standard microbiological methods. Essentially, cells were serially diluted in a microtiter plate (20 μl of the culture and 180 μl of YPD broth) and 10 μl of the various dilutions were spotted onto triplicate agar plates and incubated at 30° C. for 24 and 48 hours. Colonies were counted after 48 hours and CFUs/ml were calculated. The percent survival was calculated based on the CFUs/ml of the 24 hour HCD or LCD control culture for each strain and results are given in Table 3.
# [1] = test system: Kluyveromyces marxianus PNY0578
# Description: as §1, §2, §3, §4
# [2] = test system: Issatchenkia orientalis PNY0575
# Description: as §1, §2, §3, §4
# Pichia anomala PNY0573 = test system: Pichia anomala PNY0573
# Description: as §1, §2, §3, §4
# [3] = test system: Issatchenkia orientalis PNY0576
# Description: as §1, §2, §3, §4
# [4] = test system: Kluyveromyces marxianus PNY0577
# Description: as §1, §2, §3, §4
# [5] = test system: Pichia membranifaciens PNY0572
# Description: as §1, §2, §3, §4
smiles,measurement,setting,value
"CC(C)CO [Isobutanol, isobutanol]",Percent Survival HCD,"Pichia sp. PNY0574; PNY0574, 1% isobutanol",100%
same,Percent Survival LCD,"Pichia sp. PNY0574; PNY0574, 1% isobutanol",10%
same,Percent Survival HCD,"Pichia sp. PNY0574; PNY0574, 2% isobutanol",100%
same,Percent Survival LCD,"Pichia sp. PNY0574; PNY0574, 2% isobutanol",0.5%
same,Percent Survival HCD,"[1]; PNY0578, 1% isobutanol",51%
same,Percent Survival LCD,"[1]; PNY0578, 1% isobutanol",<0.001%
same,Percent Survival HCD,"[1]; PNY0578, 2% isobutanol",<0.001%
same,Percent Survival LCD,"[1]; PNY0578, 2% isobutanol",<0.001%
same,Percent Survival HCD,"[2]; PNY0575, 1% isobutanol",61.3%
same,Percent Survival LCD,"[2]; PNY0575, 1% isobutanol",3.1%
same,Percent Survival HCD,"[2]; PNY0575, 2% isobutanol",<0.001%
same,Percent Survival LCD,"[2]; PNY0575, 2% isobutanol",<0.001%
same,Percent Survival HCD,"Pichia anomala PNY0573; PNY0573, 1% isobutanol",75.6%
same,Percent Survival LCD,"Pichia anomala PNY0573; PNY0573, 1% isobutanol",0.1%
same,Percent Survival HCD,"Pichia anomala PNY0573; PNY0573, 2% isobutanol",<0.001%
same,Percent Survival LCD,"Pichia anomala PNY0573; PNY0573, 2% isobutanol",<0.001%
same,Percent Survival HCD,"[3]; PNY0576, 1% isobutanol",50%
same,Percent Survival LCD,"[3]; PNY0576, 1% isobutanol",12.8%
same,Percent Survival HCD,"[3]; PNY0576, 2% isobutanol",<0.001%
same,Percent Survival LCD,"[3]; PNY0576, 2% isobutanol",<0.001%
same,Percent Survival HCD,"[4]; PNY0577, 1% isobutanol",39.5%
same,Percent Survival LCD,"[4]; PNY0577, 1% isobutanol",0.1%
same,Percent Survival HCD,"[4]; PNY0577, 2% isobutanol",<0.001%
same,Percent Survival LCD,"[4]; PNY0577, 2% isobutanol",<0.001%
same,Percent Survival HCD,"[5]; PNY0572, 1% isobutanol",80.6%
same,Percent Survival LCD,"[5]; PNY0572, 1% isobutanol",2.7%
same,Percent Survival HCD,"[5]; PNY0572, 2% isobutanol",<0.001%
same,Percent Survival LCD,"[5]; PNY0572, 2% isobutanol",<0.001%
